Assay results published in article PMC4965013, “Open Source Drug Discovery with the Malaria Box Compound Collection for Neglected Diseases and Beyond” (PLoS Pathogens, 2016).
pEC50, pIC50: −log10 of the molar value. Read-outs that look alike come from different tables or passages of the source.

Experiments:
[1] = tested on: P. falciparum NF54 late-stage gametocytes; details: ref [61]; cited from earlier work
P. falciparum 3D7 = experiment: [3H]-hypoxanthine growth inhibition, modified HCO3- or O2; assay type: cell-based; details: for pIC50: Plasmodium falciparum
[2] = tested on: Naegleria fowleri trophozoites; experiment: Naegleria fowleri CellTiter-Glo; assay type: cell-based; details: Naegleria fowleri
Source text: Columns CY-CZ: Kyle group (data presented first in this paper). Naegleria fowleri trophozoite growth inhibition. Methods: The CellTiter-Glo (CTG) 2.0 luminescent assay is a quantitative assay that assesses the presence of cellular ATP in lysed cells, displaying an output in Relative Light Units (RLU’s). This was previously standardised, for the growth and development of Naegleria fowleri trophozoites in-vitro to assess drug susceptibility on this parasite. […] These included two drug-like molecules MMV665807 (St. Jude’s Children’s Hospital) and MMV665979 (The Genomics Institute of the Novartis Research Foundation - GNF) and two Probe-like molecules, MMV006203 (GNF) & MMV006172 (GNF; GlaxoSmithKline - GSK). […] However, these Malaria Box compounds were all toxic to zebrafish and mammalian cells.

[3] = tested on: P. falciparum 3D7 trophozoites; experiment: Metabolomic fingerprint profiling LC-MS; assay type: cell-based, Plasmodium falciparum; set-up: UDP-D-glucose / ADP-D-glucose: unit not given here; details: for Acetyllysine / N-acetyl-L-ornithine / N-carbamoyl-L-aspartate / NADPH / dAMP / dCMP / dTDP / dTMP / dTTP / dihydroorotate / orotate / DLH / DLS/SDL/SID / PD / PEE / PVNF / 3-phosphoglycerate / ADP-D-glucose / ATP / CDP / D-sedoheptulose-1/7-phosphate / FAD / GMP / NAD+ / NADP+ / Octoluse Bisphosphate / Pyroglutamic acid / UDP-D-glucose / UDP-D-glucuronate / UDP-N-acetyl-glucosamine / UDP / UMP / UTP / a-ketoglutarate / citrate/isocitrate / cytidine / dATP / dGMP/AMP / fumarate / glucose-1/6-phosphate / glycerate / guanine / guanosine / hypoxanthine / indole / inosine / nicotinate / ornithine / phosphoenolpyruvate / pyruvate / ribose-phosphate / sarcosine/alanine / sn-glycerol-3-phosphate / succinate/methylmalonic acid / uridine / xanthosine: S2 Table Metabolomics; for Acetyllysine: metabolite Acetyllysine; for N-acetyl-L-ornithine: metabolite N-acetyl-L-ornithine; for N-carbamoyl-L-aspartate: metabolite N-carbamoyl-L-aspartate; for NADPH: metabolite NADPH; for dAMP: metabolite dAMP; for dCMP: metabolite dCMP; for dTDP: metabolite dTDP; for dTMP: metabolite dTMP; for dTTP: metabolite dTTP; for dihydroorotate: metabolite dihydroorotate; for orotate: metabolite orotate; for DLH: peptide DLH; for DLS/SDL/SID: peptide DLS/SDL/SID; for PD: peptide PD; for PEE: peptide PEE; for PVNF: peptide PVNF; for 3-phosphoglycerate: metabolite 3-phosphoglycerate; for ADP-D-glucose: metabolite ADP-D-glucose; for ATP: metabolite ATP; for CDP: metabolite CDP; for CDP / D-sedoheptulose-1/7-phosphate / GMP / Octoluse Bisphosphate / UDP / UMP / UTP / citrate/isocitrate / dGMP/AMP / fumarate / glucose-1/6-phosphate / glycerate / guanine / guanosine / inosine / pyruvate / sarcosine/alanine / succinate/methylmalonic acid / uridine / xanthosine: change in metabolite level after compound treatment; for D-sedoheptulose-1/7-phosphate: metabolite D-sedoheptulose-1/7-phosphate; for FAD: metabolite FAD; for GMP: metabolite GMP; for NAD+: metabolite NAD+; for NADP+: metabolite NADP+; for Octoluse Bisphosphate: metabolite Octoluse Bisphosphate; for Pyroglutamic acid: metabolite Pyroglutamic acid; for UDP-D-glucose: metabolite UDP-D-glucose; for UDP-D-glucuronate: metabolite UDP-D-glucuronate; for UDP-N-acetyl-glucosamine: metabolite UDP-N-acetyl-glucosamine; for UDP: metabolite UDP; for UMP: metabolite UMP; for UTP: metabolite UTP; for a-ketoglutarate: metabolite a-ketoglutarate; for citrate/isocitrate: metabolite citrate/isocitrate; for cytidine: metabolite cytidine; for dATP: metabolite dATP; for dGMP/AMP: metabolite dGMP/AMP; for fumarate: metabolite fumarate; for glucose-1/6-phosphate: metabolite glucose-1/6-phosphate; for glycerate: metabolite glycerate; for guanine: metabolite guanine; for guanosine: metabolite guanosine; for hypoxanthine: metabolite hypoxanthine; for indole: metabolite indole; for inosine: metabolite inosine; for 2_3-Diphosphoglyceric acid / 4-phosphopantothenate / 6-phospho-D-gluconate / FMN / IMP / Pyrophosphate / Sedoheptoluse bisphosphate / cyclic-AMP / glutathione disulfide / lactate / myo-inositol: metabolite level change after treatment; for nicotinate: metabolite nicotinate; for ornithine: metabolite ornithine; for phosphoenolpyruvate: metabolite phosphoenolpyruvate; for pyruvate: metabolite pyruvate; for ribose-phosphate: metabolite ribose-phosphate; for sarcosine/alanine: metabolite sarcosine/alanine; for sn-glycerol-3-phosphate: metabolite sn-glycerol-3-phosphate; for succinate/methylmalonic acid: metabolite succinate/methylmalonic acid; for uridine: metabolite uridine; for xanthosine: metabolite xanthosine
P. falciparum = experiment: EC50 listed in S2 Table Metabolomics (used to set the concentration tested); assay type: cell-based; details: Plasmodium falciparum; EC50 used for Factor_XEC50 in metabolomics; read-out: EC50_nM
PfPMT = PfPMT (Plasmodium falciparum, UniProt Q8IDQ9); experiment: PfPMT gene replacement yeast growth; details: 100µM
P. falciparum Dd2 = experiment: Malaria Sybr Green I Fluorescence assay Dd2 Horrocks; assay type: cell-based; details: Plasmodium falciparum, DD2, 48 h; read-out: P. falciparum Dd2 asexual blood stage EC50 Horrocks
Protocol: Column S: Horrocks group (data presented first in this paper). Asexual Dd2 inhibition of growth (IC50s): IC50 for the Dd2 clone of Plasmodium falciparum were determined using the Malaria Sybr Green I Fluorescence assay. Drug assays were initiated using a 2% trophozoite stage parasitaemia and 2% hematocrit and fluorescence measured after 48 h as fully described in Hasenkamp et al.[53]. Log dose-response curves were plotted in GraphPad Prism (v5.0). The controls for Dd2 using our 48hr Sybr Green I assay were (rounded to nearest nM): Chloroquine 209nM, Mefloquine 11nM, Quinine 246nM, Dihydroartemisinin 4nM, Artemether 10nM, Atovaquone 3nM.

[4] = tested on: P. falciparum NF54 gametocytes stage IV/V; experiment: Gametocyte PrestoBlue resazurin assay Mancama; assay type: cell-based; details: reference control
[5] = tested on: P. falciparum NF54Pfs16 gametocytes stage I-III; details: ref [61]; read-out: gametocyte early stage (I-III) luciferase EC50; cited from earlier work
[6] = tested on: P. falciparum NF54Pfs16 gametocytes stage IV-V; details: ref [62]; read-out: gametocyte late stage (IV-V) luciferase EC50; cited from earlier work
[7] = tested on: P. falciparum NF54 GFP-Pfs16 gametocytes stage I-III; details: ref [64]; read-out: gametocyte early stage (I-III) GFP-MTR EC50; cited from earlier work
[8] = tested on: P. falciparum NF54 GFP-Pfs16 gametocytes stage IV-V; details: ref [64]; read-out: gametocyte late stage (IV-V) GFP-MTR EC50; cited from earlier work

PfPMT, sequence (Q8IDQ9 whole entry): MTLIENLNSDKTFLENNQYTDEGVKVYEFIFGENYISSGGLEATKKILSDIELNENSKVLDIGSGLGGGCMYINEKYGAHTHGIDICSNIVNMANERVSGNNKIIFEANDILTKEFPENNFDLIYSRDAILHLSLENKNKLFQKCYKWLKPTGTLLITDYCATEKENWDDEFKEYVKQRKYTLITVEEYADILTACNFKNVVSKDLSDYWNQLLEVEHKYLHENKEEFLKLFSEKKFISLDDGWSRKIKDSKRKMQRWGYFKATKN

CCN(CC)CCn1c(=N)n(CC(O)c2ccc(Cl)c(Cl)c2)c2ccccc21 (stereo not drawn) [MMV000248]
pIC50 [1]: > 6.46

CN1CCN(c2ccc(Nc3c4ccccc4nc4ccccc34)cc2)CC1 [MMV006172]
fold change (IC50reduced/IC50normal) (P. falciparum 3D7): 2.7 | pIC50 (P. falciparum 3D7; 3D7, read-out: P. falciparum 3D7 IC50 HCO3- (2g/L), standard media): 7.01 | pIC50 (P. falciparum 3D7; 3D7, HCO3- reduced media, read-out: P. falciparum 3D7 IC50 HCO3- reduced): 6.57 | pEC50 [2]: 6.35 | Acetyllysine [3]: 0.6429 | N-acetyl-L-ornithine [3]: -0.2511 | N-carbamoyl-L-aspartate [3]: 0.8815 | NADPH [3]: 2.534 | dAMP [3]: 1.267 | dCMP [3]: -0.3053 | dTDP [3]: 0.7092 | dTMP [3]: 0.8691 | dTTP [3]: -0.715 | dihydroorotate [3]: 1.4632 | orotate [3]: 0.5213 | DLH [3]: -4.586 | DLS/SDL/SID [3]: -3.823 | PD [3]: -0.4464 | PEE [3]: -0.6694 | PVNF [3]: -3.7 | 3-phosphoglycerate [3]: -0.655 | ADP-D-glucose [3]: -0.09693 | ATP [3]: -0.7842 | CDP [3]: 1.006 | D-sedoheptulose-1/7-phosphate [3]: 0.2573 | FAD [3]: 0.1782 | GMP [3]: -0.3671 | NAD+ [3]: 0.5266 | NADP+ [3]: -0.7002 | Octoluse Bisphosphate [3]: -0.1204 | Pyroglutamic acid [3]: -0.2696 | UDP-D-glucose [3]: 0.05631 | UDP-D-glucuronate [3]: -0.2935 | UDP-N-acetyl-glucosamine [3]: 0.1613 | UDP [3]: 0.649 | UMP [3]: 0.2218 | UTP [3]: -0.6427 | a-ketoglutarate [3]: -0.4073 | citrate/isocitrate [3]: -0.6633 | cytidine [3]: 0.3233 | dATP [3]: -0.3558 | dGMP/AMP [3]: 1.003 | fumarate [3]: 0.7684 | glucose-1/6-phosphate [3]: 0.09231 | glycerate [3]: 0.7592 | guanine [3]: 0.5811 | guanosine [3]: 0.453 | hypoxanthine [3]: -0.3137 | indole [3]: -0.03187 | inosine [3]: -0.01435 | 2_3-Diphosphoglyceric acid [3]: -0.3266 | 4-phosphopantothenate [3]: 0.2237 | 6-phospho-D-gluconate [3]: -0.02611 | FMN [3]: -0.396 | IMP [3]: 0.3236 | Pyrophosphate [3]: -0.313 | Sedoheptoluse bisphosphate [3]: 0.4531 | cyclic-AMP [3]: -0.3476 | glutathione disulfide [3]: -0.09654 | lactate [3]: -0.002939 | myo-inositol [3]: 0.6827 | nicotinate [3]: -0.01109 | ornithine [3]: 0.1416 | phosphoenolpyruvate [3]: -0.5207 | pyruvate [3]: -0.2034 | ribose-phosphate [3]: -0.6476 | sarcosine/alanine [3]: -0.2856 | sn-glycerol-3-phosphate [3]: -0.6027 | succinate/methylmalonic acid [3]: -0.3004 | uridine [3]: -0.07558 | xanthosine [3]: -1.8392 | pEC50 (P. falciparum): 6.85 | pIC50 [1]: > 6.46 | candidate inhibitors of PfPMT activity (yeast functional assay) (PfPMT): candidate inhibitors of PfPMT activity

Cc1cc(NCCN2CCCCC2)c2ccc3ccccc3c2n1 [MMV006203]
fold change (IC50normal/ IC50hypoxia) (P. falciparum 3D7): 3.7 | pIC50 (P. falciparum 3D7; 3D7, read-out: P. falciparum 3D7 IC50 1% O2, 1% O2 hypoxia): 6.88 | pIC50 (P. falciparum 3D7; 3D7, read-out: P. falciparum 3D7 IC50 5% O2): 6.31 | pEC50 [2]: 6.38 | Acetyllysine [3]: 0.08786 | N-acetyl-L-ornithine [3]: 0.002896 | N-carbamoyl-L-aspartate [3]: 0.4112 | NADPH [3]: 0.03038 | dAMP [3]: 0.7397 | dCMP [3]: 0.2991 | dTDP [3]: 0.8216 | dTMP [3]: 0.8444 | dTTP [3]: 0.2113 | dihydroorotate [3]: 0.4914 | orotate [3]: 0.1057 | DLH [3]: -0.3111 | DLS/SDL/SID [3]: -0.5497 | PD [3]: -0.2642 | PEE [3]: -0.1431 | PVNF [3]: -0.3001 | 3-phosphoglycerate [3]: -0.2573 | ADP-D-glucose [3]: 0.2156 | ATP [3]: -0.6838 | CDP [3]: 0.8402 | D-sedoheptulose-1/7-phosphate [3]: 0.9147 | FAD [3]: 0.06173 | GMP [3]: -0.5622 | NAD+ [3]: -0.01124 | NADP+ [3]: 0.01586 | Octoluse Bisphosphate [3]: -0.09172 | Pyroglutamic acid [3]: -0.7767 | UDP-D-glucose [3]: 0.04255 | UDP-D-glucuronate [3]: -0.09689 | UDP-N-acetyl-glucosamine [3]: 0.1138 | UDP [3]: 0.8936 | UMP [3]: -0.4956 | UTP [3]: -0.4083 | a-ketoglutarate [3]: -0.4253 | citrate/isocitrate [3]: -0.3127 | cytidine [3]: -0.1848 | dATP [3]: -0.6172 | dGMP/AMP [3]: 0.6443 | fumarate [3]: -0.3628 | glucose-1/6-phosphate [3]: 0.2347 | glycerate [3]: -0.4315 | guanine [3]: 0.07764 | guanosine [3]: -0.09005 | hypoxanthine [3]: -0.3483 | indole [3]: -0.1837 | inosine [3]: -0.08456 | 2_3-Diphosphoglyceric acid [3]: 0.4386 | 4-phosphopantothenate [3]: 0.2283 | 6-phospho-D-gluconate [3]: 0.1112 | FMN [3]: 0.1526 | IMP [3]: 0.332 | Pyrophosphate [3]: 0.424 | Sedoheptoluse bisphosphate [3]: -0.2408 | cyclic-AMP [3]: -0.2974 | glutathione disulfide [3]: 0.042 | lactate [3]: -0.2642 | myo-inositol [3]: -0.268 | nicotinate [3]: -0.1416 | ornithine [3]: -0.3267 | phosphoenolpyruvate [3]: -0.2017 | pyruvate [3]: -0.1834 | ribose-phosphate [3]: -0.417 | sarcosine/alanine [3]: 0.1849 | sn-glycerol-3-phosphate [3]: -0.1322 | succinate/methylmalonic acid [3]: -0.1409 | uridine [3]: -0.04629 | xanthosine [3]: -0.705 | pEC50 (P. falciparum): 6.52

C[C@H]1[C@@H](O)O[C@@H]2O[C@@]3(C)CC[C@H]4[C@H](C)CC[C@@H]1[C@@]24OO3 [Dihydroartemisinin, reference compound]
pEC50 (P. falciparum Dd2): 8.40 | DHA inhibition of stage IV/V gametocytes [4]: 84%

CN(C)c1ccc2nc3ccc(=[N+](C)C)cc-3sc2c1 [methylene blue, reference compound]
pEC50 [5]: 7.52 | pEC50 [6]: 7.42 | pEC50 [7]: 6.55 | pEC50 [8]: 6.54
